Where “and” joins values, the source holds several entries; their conditions need not be identical. Identical values can stand only once.
How the values were obtained:
MOLT4 cells = experiment: Off-target quantitative global proteomics in MOLT4 cells; assay type: cell-based, human
Procedure: Cells were lysed by the addition of lysis buffer (8 M Urea, 50 mM NaCl, 50 mM […] (EPPS) pH 8.5, Protease and Phosphatase inhibitors) and homogenization by bead beating (BioSpec) for three repeats of 30 s at 2400. Bradford assay was used to determine the final protein concentration in the clarified cell lysate. 50 μg of protein for each sample was reduced, alkylated, and precipitated using methanol/chloroform as previously described and the resulting washed precipitated protein was allowed to air-dry. Precipitated protein was resuspended in 4 M Urea, 50 mM HEPES pH 7.4, followed by dilution to <1 M urea with the addition of 200 mM EPPS, pH 8. Proteins were digested overnight at 37 °C with LysC (1:50; enzyme:protein) and trypsin (1:50; enzyme:protein). Sample digests were acidified with formic acid to a pH of 2–3 prior to desalting using C18 solid-phase extraction plates (SOLA, Thermo Fisher Scientific). Desalted peptides were dried in a vacuum-centrifuge and reconstituted in 0.1% formic acid for LC-MS analysis. […]
The diaPASEF raw file processing and controlling peptide and protein level false discovery rates, assembling proteins from peptides, and protein quantification from peptides were performed using library-free analysis in DIA-NN 1.8. […]

rhesus monkey PXR (oPXR) = rhesus monkey PXR (oPXR) (Macaca mulatta, UniProt Q8SQ01); experiment: Rhesus monkey PXR luciferase reporter assay; assay type: cell-based; conditions: rifampicin as prototypical inducer
Sequence of rhesus monkey PXR (oPXR) (Q8SQ01 whole entry): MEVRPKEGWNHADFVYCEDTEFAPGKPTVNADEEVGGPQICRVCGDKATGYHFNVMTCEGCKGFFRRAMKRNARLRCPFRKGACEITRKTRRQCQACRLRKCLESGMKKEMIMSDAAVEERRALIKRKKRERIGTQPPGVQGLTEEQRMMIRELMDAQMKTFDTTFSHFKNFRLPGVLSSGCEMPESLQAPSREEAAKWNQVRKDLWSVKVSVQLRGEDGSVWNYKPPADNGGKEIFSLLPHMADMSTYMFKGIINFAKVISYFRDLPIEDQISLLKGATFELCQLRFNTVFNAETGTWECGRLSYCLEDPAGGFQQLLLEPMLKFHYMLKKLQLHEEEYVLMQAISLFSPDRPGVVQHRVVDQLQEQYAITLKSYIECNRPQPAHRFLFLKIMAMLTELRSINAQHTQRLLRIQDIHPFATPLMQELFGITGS
Procedure: The CYP3A4 gene promoter luciferase reporter construct (p3A4-luc) bears a distal XREM (−7836/–7208) and a proximal promoter sequence (prPXRE, −362/+53) from the CYP3A4 gene promoter region. […] The human PXR expression vector (variant 1, NM_003889.3) as well as vectors for mouse, rat, and monkey orthologues were described in our recent paper (39). […] Rhesus monkey, mouse, and rat PXR expression vectors (100 ng/well each) were also obtained from GenScript. […] Carlberg (University of Kuopio, Kuopio, Finland).
(§1) The cells were cultured in DMEM medium (Merck) supplemented with 10% fetal bovine serum.

AhR = AhR (Homo sapiens, UniProt P35869); experiment: AhR agonist reporter assay; assay type: cell-based; conditions: 10 µM MI891
Sequence of AhR (P35869 11-848, species assumed): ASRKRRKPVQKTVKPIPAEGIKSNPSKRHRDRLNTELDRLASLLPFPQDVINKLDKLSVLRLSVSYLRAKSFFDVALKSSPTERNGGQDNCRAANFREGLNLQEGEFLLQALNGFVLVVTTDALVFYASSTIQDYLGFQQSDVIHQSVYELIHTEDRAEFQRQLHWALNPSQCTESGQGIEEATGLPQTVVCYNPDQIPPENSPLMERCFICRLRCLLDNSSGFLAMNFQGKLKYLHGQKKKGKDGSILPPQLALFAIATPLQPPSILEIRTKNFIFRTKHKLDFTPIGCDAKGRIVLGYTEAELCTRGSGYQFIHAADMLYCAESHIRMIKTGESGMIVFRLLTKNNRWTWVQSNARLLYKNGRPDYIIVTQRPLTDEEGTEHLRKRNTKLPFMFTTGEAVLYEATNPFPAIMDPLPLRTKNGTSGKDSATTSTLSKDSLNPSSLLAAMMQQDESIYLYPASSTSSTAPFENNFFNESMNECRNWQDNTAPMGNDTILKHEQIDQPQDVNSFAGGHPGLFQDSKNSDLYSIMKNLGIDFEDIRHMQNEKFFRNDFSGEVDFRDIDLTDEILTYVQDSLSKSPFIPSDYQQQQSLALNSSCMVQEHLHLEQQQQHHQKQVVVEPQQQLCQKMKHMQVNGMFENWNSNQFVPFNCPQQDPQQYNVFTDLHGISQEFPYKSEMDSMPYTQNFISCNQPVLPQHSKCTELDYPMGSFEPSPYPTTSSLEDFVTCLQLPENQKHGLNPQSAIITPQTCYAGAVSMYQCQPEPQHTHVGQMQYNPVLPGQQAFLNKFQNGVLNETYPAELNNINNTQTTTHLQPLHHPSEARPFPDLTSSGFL
Procedure: For the farnesoid X receptor (FXR) luciferase gene reporter assay, the full-length expression vector was paired with pFXRE-luc luciferase construct. The p1A1-luc construct was used in the aryl hydrocarbon receptor (AhR) assays with pRL-TK for normalization. Gal4-LXR-α/β, and Gal4-PPAR-γ constructs were used with the pGAL4 UAS-luc construct. For the VDR assay, expression vector pSG5-hVDR together with pVDRE-luc constructs was used. Firefly and Renilla luciferase activities were analyzed using a Dual reporter assay (Promega). For the nuclear receptor assays, prototype ligands were used at the following concentrations: Calcitriol for VDR (100 nM), GW3965 for LXRα and LXRβ (10 μM), 6-OCA for FXR (1 μM), fenofibrate for PPARα (10 μM), estradiol for ERα and β (10 μM), rosiglitazone for PPARγ (10 μM), 3-MC for AhR (5 μM), and TCPOBOP for mCAR (10 μM). Detailed descriptions and protocols are detailed in our recent publication. , […]
hydrophobic interactions. (F) Superimposed diagram of PXR bound with agonist (SJPYT-328) and antagonists (MI891 and SJPYT-331) to differentiate the agonist and antagonist interactions with helix 12 (H12). The interaction of the agonist with PXR residue (L428) is circled. (G) Extended nuclear receptor selectivity profile. […]

[1] = target: T1, human wild-type CAR (CARwt) (Homo sapiens, UniProt Q14994); experiment: CARwt luciferase reporter gene assay in HepG2; assay type: cell-based
T1 construct: expressed in transfected cells; host or cells: HepG2
T1 sequence (Q14994 1-348 isoform Q14994-2): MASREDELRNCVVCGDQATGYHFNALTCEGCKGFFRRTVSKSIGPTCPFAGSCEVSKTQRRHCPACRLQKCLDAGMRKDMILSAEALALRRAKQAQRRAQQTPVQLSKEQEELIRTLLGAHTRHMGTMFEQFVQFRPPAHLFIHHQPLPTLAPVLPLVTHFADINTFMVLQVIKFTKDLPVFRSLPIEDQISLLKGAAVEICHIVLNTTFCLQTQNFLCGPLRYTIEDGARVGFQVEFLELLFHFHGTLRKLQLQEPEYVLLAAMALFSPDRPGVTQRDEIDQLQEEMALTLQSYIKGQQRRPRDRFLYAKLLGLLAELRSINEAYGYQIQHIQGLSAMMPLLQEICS
Procedure: Rhesus monkey, mouse, and rat PXR expression vectors (100 ng/well each) were also obtained from GenScript. […] Carlberg (University of Kuopio, Kuopio, Finland).
as §1

activity on rhesus monkey PXR (oPXR) (rhesus monkey PXR (oPXR)) | agonistic effect on AhR (AhR) | EC50 ([1]; HepG2, read-out: CARwt activation EC50) | activation of CARwt ([1]; at concentrations up to 10 μM) | Molecule | IKZF1, IKZF3 and ZFP91 levels, global proteomics (MOLT4 cells) | GSPT1 expression, global proteomics (MOLT4 cells; 2 μM of MI1013)
 |  |  |  | N-(4-((1-(2,5-dimethoxyphenyl)-5-methyl-1H-1,2,3-triazol-4-yl)sulfonyl)phenyl)-3-(2-(2-(2-(4-(((2-(2,6-dioxopiperidin-3-yl)-1,3-dioxoisoindolin-4-yl)amino)methyl)-1H-1,2,3-triazol-1-yl)ethoxy)ethoxy)ethoxy)propenamide [Compound 36] | degradation | remains undegraded
full agonism | no agonistic effects | ~137 µM and 137 µM | no significant activation | NC(=O)c1cc(Cn2cc(-c3c(-c4ccc(Cl)cc4)nc4c(F)cc(F)cn34)nn2)ccc1Cl [Compound 11, 2-Chloro-5-((4-(2-(4-chlorophenyl)-6,8-difluoroimidazo[1,2-a]pyridin-3-yl)-1H-1,2,3-triazol-1-yl)methyl)-benzamide] |  | 
